From US6613761B1, “Benzoxazepine compounds, their production and use” (Takeda Chemical Industries, Ltd., priority 1995, dated 2003)

How the values were obtained:
squalene synthetase = target: T1, squalene synthetase (Homo sapiens, UniProt P37268); assay: Squalene synthetase inhibitory activity (human-derived enzyme prepared from HepG2 cells); type: biochemical; settings: [1-3H] farnesyl pyrophosphate, 37° C., 45 minutes, read-out: Inhibitory Activity (IC50, 10^−9 M)
T1 construct: This suspension was used as the enzyme solution; endogenous in cells; host or cells: HepG2 human hepatic carcinoma cells; membrane fraction (105000×g sediment) of the sonicate
T1 sequence (P37268 1-417): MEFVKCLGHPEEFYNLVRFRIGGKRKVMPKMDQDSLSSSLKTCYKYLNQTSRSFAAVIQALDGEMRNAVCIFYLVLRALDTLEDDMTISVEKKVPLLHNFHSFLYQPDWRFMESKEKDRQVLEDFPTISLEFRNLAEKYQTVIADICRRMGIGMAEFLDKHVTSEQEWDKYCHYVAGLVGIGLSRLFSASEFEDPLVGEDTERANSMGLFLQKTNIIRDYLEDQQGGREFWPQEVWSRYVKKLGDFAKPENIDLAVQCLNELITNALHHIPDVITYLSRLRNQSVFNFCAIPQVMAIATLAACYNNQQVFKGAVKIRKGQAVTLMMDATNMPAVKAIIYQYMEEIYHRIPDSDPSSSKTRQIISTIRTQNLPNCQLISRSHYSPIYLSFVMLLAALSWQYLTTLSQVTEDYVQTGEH
Procedure: The squalene synthetase inhibitory activity was assayed as follows with the enzyme solutions prepared in accordance with the method described below.
More specifically, an enzyme solution (protein content 0.8 μg) prepared in accordance with the method described below was added to a solution (total volume 50 μl)) containing 5 μM [1-^3H] farnesyl pyrophosphate (specific activity 25 μCi/mole), 1 mM NADPH (nicotinamide adenine dinucleotide phosphate of reduced type), 5 mM MgCl2, 6 mM glutathione, a 100 mM buffer solution of potassium phosphate (pH 7.4) and a test drug (used as an aqueous solution or a DMSO solution), then the reaction was allowed to proceed at 37° C. for 45 minutes. To the reaction mixture was added 150 μl of a mixture of chloroform and methanol (1:2) to suspend the reaction, followed by adding 50 Al of chloroform and 50 μl of a 3N solution of sodium hydroxide. 50 μl of the chloroform layer (lower layer) containing the reaction mixture having squalene as the principal component and 3 ml of toluene-based liquid scintillator were mixed, and its radioactivity was determined by means of a liquid scintillation counter.
The squalene synthetase inhibitory activity was expressed in terms of the concentration inhibiting by 50% the radioactivity taken into the chloroform layer (IC50, molar concentration (M)), as shown in Table 7. Preparation of human-derived enzyme
Human hepatic carcinoma cells HepG2 (about 1×10^9 cells) obtained by incubation on a Dulbecco-modified Eagle's medium (37° C. in the presence of 5% CO2) containing 10% fetal bovine serum were suspended in 10 ml of an ice-cooled buffer solution (100 mM potassium phosphate buffer (pH 7.4), 30 mM nicotinamide and 2.5 mM MgCl2]. The cells were crashed by means of ultrasonication (for 30 seconds, twice). The sonicate thus obtained was subjected to centrifugation for 20 minutes (4° C.) with 10000×g. The supernatant layer was subjected to further centrifugation for 90 minutes (4° C.) with 105000×g. The sediment was then suspended in an ice-cooled 100 mM potassium phosphate buffer (pH 7.4), which was again subjected to centrifugation for 90 minutes (4° C.) with 105000×g. This fraction was suspended in an ice-cooled 100 mM potassium phosphate buffer solution (pH 7.4) (about 4 mg/ml protein concentration). This suspension was used as the enzyme solution.

[1] = test system: Cholesterol biosynthesis in the liver; assay: Assay of cholesterogenesis in the liver; type: in vivo; settings: Wistar fatty rats, liver total sterol radioactivity from 14C sodium acetate
Procedure: Cholesterol biosynthesis in the liver of a rat was assayed as follows. Six-week old Wistar fatty rats were given orally a test compound [Compound 4-2 (suspended in a 0.5% methyl cellulose solution)], while the control group was orally given only a 0.5% methyl cellulose solution. One hour later, sodium acetate labelled with radioisotope ^14C (manufactured by Amasham) was given intravenously at the tail (10 μCi/0.3 ml physiological saline/rat). One hour layer, rats were sacrificed by decapitation, and 1.5 g of the first lobe of the liver was removed, which was saponified by immersing in 3.9 ml of an alkaline ethanol solution (KOH:EtOH=1:2) at 100° C. for two hours, followed by extraction with 5 ml each portion of petroleum ether three times. The extract solution was dried, which was dissolved in 3 ml of ethanol:acetone (1:1). To the solution was added 2 ml of a 0.5% digitonin-ethanol solution. The mixture was left standing for one hour. Resulting precipitates were collected as total sterol, and the radioactivity was measured by means of a liquid scintillation counter.

COc1cccc([C@H]2O[C@H](CC(=O)N3CCC(CC(=O)O)CC3)C(=O)N(CC(C)(C)C)c3ccc(Cl)cc32)c1OC [Compound 4-2, N-[(3R,5S)-7-chloro-5-(2,3-dimethoxyphenyl)-1-neopentyl-2-oxo-1,2,3,5-tetrahydro-4,1-benzoxazepine-3-acetyl]piperidine-4-acetic acid]
IC50 (squalene synthetase): 22 nM
Cholesterogenesis inhibitory rate (%) ([1]; 0.6 mg/kg given orally): 80.1%
Cholesterogenesis inhibitory rate (%) ([1]; 2.0 mg/kg given orally): 90.4%
melting point: 137 to 140 °C

COc1cccc([C@H]2O[C@H](Cc3nc(=O)o[nH]3)C(=O)N(CC(C)(C)C)c3ccc(Cl)cc32)c1OC [Compound 8, (3R,5S)-7-Chloro-5-(2,3-dimethoxyphenyl)-1-neopentyl-3-(2,5-dihydro-5-oxo-1,2,4-oxadiazol-3-yl) methyl-1,2,3,5-tetrahydro-4,1-benzoxazepin-2-one]
IC50 (squalene synthetase): 12 nM
melting point: 130 to 133 °C

COc1cccc([C@H]2O[C@H](CC(=O)NS(=O)(=O)c3ccccc3)C(=O)N(CC(C)(C)C)c3ccc(Cl)cc32)c1OC [Compound 17-2]
IC50 (squalene synthetase): 9.3 nM
melting point: 158 to 161 °C

COc1cccc([C@H]2O[C@H](CC(=O)N3CCN(CC(=O)O)C(=O)C3)C(=O)N(CC(C)(C)C)c3ccc(Cl)cc32)c1OC [Compound 4-31]
IC50 (squalene synthetase): 20 nM
melting point: 162 to 164 °C

COc1cccc([C@H]2O[C@H](CC(=O)NS(=O)(=O)C(C)C)C(=O)N(CC(C)(C)C)c3ccc(Cl)cc32)c1OC [Compound 17-3]
IC50 (squalene synthetase): 11 nM
melting point: 149 to 150 °C

COc1cccc([C@H]2O[C@H](Cc3nnn[nH]3)C(=O)N(CC(C)(C)C)c3ccc(Cl)cc32)c1OC [Compound 7, (3R,5S)-7-Chloro-5-(2,3-dimethoxyphenyl)-1-neopentyl-1,2,3,5-tetrahydro-3-[1H(or 3H)-tetrazol-5-yl]methyl-4,1-benzoxazepin-2-one]
IC50 (squalene synthetase): 11 nM
melting point: 148 to 150 °C
